Assay results published in ChEMBL document CHEMBL1201862, “PubChem BioAssay data set” (2004).
Each block holds one compound with its values, some of them ahead of it. The source made the active and inactive calls.

Columns and labels:
[1] = molecular target: Metabotropic glutamate receptor 3 (Rattus norvegicus, UniProt P31422); assay: mGlu3 negative allosteric modulator potency, dose response, HEK/GIRK cells, thallium flux, rat (AID 651839); assay type: functional
[2] = molecular target: Potassium channel subfamily K member 9 (Homo sapiens, UniProt Q9NPC2); assay: TASK3 (KCNK9) channel inhibitors, thallium flux, SAR follow-up, selectivity assay for TASK1 inhibitor project, cell-based, FluxOR thallium flux, concentration-response (AID 652211); assay type: functional;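 note: potency is for inhibitors of the channel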
Sequence of Potassium channel subfamily K member 9 (Q9NPC2 whole entry): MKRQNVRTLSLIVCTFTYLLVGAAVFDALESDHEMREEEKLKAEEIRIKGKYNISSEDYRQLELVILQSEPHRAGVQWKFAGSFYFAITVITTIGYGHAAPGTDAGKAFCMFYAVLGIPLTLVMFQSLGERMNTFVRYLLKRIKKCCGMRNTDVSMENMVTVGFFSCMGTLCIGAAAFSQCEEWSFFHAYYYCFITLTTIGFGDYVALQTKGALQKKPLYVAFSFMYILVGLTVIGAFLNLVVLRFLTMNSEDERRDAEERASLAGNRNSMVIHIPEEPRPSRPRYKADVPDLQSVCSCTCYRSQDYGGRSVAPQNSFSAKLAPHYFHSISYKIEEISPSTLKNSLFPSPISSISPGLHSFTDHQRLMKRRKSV

[3] = molecular target: Potassium channel subfamily K member 3 (Homo sapiens, UniProt O14649); assay: TASK1 (KCNK3) potassium channel inhibitors, SAR follow-up, CHO cells, FluxOR thallium flux (AID 652212); assay type: functional
Sequence of Potassium channel subfamily K member 3 (O14649 whole entry): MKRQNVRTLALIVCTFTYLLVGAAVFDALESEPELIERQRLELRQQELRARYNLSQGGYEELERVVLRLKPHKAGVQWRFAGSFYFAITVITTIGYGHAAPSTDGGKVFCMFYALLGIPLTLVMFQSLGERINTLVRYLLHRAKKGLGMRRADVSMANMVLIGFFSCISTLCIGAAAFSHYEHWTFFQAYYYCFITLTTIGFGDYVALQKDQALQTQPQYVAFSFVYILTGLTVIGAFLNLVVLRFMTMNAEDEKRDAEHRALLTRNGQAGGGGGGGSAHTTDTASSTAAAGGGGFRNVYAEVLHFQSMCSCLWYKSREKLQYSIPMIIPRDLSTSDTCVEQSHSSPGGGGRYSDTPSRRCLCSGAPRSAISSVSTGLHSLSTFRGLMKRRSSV

[4] = molecular target: Metabotropic glutamate receptor 5 (Rattus norvegicus, UniProt P31424); assay: Identification of a glycine sulfonamide based non-MPEP site positive allosteric potentiator (PAM) of mGlu5 (calcium_assay).; assay type: functional
Sequence of Metabotropic glutamate receptor 5 (P31424 whole entry, the tested form may be a part): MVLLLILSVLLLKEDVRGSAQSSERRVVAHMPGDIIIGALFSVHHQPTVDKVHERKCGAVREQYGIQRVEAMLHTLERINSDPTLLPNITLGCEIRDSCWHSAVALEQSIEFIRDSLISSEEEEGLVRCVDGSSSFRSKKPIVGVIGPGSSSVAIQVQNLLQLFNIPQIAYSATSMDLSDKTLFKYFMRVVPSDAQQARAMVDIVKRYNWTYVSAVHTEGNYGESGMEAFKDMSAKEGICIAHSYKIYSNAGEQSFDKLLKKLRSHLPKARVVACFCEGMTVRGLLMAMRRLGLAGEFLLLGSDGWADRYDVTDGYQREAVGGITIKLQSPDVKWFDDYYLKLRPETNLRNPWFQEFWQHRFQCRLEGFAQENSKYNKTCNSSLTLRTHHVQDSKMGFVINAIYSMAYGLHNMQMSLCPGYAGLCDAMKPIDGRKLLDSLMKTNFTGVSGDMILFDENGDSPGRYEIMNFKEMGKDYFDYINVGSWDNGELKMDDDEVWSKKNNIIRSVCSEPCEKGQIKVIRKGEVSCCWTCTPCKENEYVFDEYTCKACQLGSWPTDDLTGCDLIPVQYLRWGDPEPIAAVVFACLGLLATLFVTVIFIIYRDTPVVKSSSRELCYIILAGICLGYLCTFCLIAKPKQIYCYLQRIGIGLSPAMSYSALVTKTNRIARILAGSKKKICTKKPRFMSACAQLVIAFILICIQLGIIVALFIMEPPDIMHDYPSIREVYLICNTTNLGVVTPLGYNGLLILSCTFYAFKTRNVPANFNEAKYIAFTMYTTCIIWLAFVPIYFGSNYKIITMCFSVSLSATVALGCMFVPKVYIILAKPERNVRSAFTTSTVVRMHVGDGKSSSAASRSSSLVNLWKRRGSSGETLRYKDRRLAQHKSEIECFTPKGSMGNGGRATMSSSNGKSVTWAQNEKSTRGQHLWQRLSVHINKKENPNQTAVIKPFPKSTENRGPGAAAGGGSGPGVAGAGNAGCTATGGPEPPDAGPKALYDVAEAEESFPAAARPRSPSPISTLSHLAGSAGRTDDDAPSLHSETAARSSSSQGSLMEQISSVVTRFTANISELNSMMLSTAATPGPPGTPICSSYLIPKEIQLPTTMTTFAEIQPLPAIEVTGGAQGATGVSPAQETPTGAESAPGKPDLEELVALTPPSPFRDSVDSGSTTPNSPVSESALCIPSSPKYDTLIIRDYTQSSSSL

[5] = molecular target: T1, Oxysterols receptor LXR-beta (Homo sapiens, UniProt P55055); assay type: functional, cell-based;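 note: agonist activity at LXR measured by a cell-based luminescence readout across a dose range, run as a counterscreen for daf-12 agonists; HEK293 cells with Gal4-LXR fusion and GAL4-driven luciferase reporter; potency for activation of Gal4-LXR reporter so compounds are agonists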
T1 sequence (P55055 whole entry): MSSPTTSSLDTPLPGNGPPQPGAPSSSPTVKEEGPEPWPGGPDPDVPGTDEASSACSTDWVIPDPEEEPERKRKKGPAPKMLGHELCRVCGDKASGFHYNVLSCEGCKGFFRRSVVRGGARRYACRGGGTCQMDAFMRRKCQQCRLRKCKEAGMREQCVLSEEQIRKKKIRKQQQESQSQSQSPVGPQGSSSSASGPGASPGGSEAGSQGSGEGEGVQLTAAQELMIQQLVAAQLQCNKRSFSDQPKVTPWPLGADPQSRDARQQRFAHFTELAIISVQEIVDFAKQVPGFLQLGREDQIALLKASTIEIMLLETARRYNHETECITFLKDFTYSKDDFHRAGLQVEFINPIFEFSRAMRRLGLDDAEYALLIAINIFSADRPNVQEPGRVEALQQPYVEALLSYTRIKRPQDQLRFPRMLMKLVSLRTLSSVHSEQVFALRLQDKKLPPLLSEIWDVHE

Cytochrome P450 2C19 = Cytochrome P450 2C19 (Homo sapiens, UniProt P33261); assay: qHTS Assay for Inhibitors and Substrates of Cytochrome P450 2C19. [Related pubchem assays: 410 ]; assay type: ADME; conditions: read-out: Potency
Sequence of Cytochrome P450 2C19 (P33261 whole entry): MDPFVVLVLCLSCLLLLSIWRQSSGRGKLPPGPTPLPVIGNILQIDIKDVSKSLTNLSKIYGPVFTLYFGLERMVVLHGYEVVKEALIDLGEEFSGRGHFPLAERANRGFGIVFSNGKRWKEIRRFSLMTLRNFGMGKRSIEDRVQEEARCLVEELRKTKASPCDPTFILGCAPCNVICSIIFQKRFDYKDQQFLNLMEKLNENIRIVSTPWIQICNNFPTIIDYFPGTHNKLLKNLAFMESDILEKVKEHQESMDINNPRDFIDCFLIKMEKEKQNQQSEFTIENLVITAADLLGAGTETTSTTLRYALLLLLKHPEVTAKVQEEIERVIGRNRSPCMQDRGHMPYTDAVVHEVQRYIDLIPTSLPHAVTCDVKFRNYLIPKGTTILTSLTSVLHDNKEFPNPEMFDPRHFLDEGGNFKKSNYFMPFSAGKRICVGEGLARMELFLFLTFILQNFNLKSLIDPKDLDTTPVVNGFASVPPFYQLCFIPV

[6] = CEM21 cell cytotoxicity, dose response, cytotoxicity control, plate reader, dry powder (AID 687026); assay type: functional, cell-based
Cytochrome P450 3A4 = Cytochrome P450 3A4 (Homo sapiens, UniProt P08684); conditions: Potency;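 note: confirmatory qHTS run detecting inhibitors and substrates of CYP3A4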
Sequence of Cytochrome P450 3A4 (P08684 whole entry): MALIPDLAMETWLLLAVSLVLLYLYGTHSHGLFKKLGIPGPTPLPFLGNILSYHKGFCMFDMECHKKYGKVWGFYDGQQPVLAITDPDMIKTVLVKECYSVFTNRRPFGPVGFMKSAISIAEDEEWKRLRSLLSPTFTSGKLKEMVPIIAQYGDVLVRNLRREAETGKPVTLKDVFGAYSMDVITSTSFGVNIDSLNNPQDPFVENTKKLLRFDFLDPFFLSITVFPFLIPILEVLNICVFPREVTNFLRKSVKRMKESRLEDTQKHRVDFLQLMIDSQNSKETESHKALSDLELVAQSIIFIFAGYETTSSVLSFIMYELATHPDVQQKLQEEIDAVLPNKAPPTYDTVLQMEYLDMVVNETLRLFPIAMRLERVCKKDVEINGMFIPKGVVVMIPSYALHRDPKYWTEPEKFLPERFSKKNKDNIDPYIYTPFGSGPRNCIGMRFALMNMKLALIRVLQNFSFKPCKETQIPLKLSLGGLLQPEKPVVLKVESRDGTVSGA

Sequence of Metabotropic glutamate receptor 3 (P31422 whole entry): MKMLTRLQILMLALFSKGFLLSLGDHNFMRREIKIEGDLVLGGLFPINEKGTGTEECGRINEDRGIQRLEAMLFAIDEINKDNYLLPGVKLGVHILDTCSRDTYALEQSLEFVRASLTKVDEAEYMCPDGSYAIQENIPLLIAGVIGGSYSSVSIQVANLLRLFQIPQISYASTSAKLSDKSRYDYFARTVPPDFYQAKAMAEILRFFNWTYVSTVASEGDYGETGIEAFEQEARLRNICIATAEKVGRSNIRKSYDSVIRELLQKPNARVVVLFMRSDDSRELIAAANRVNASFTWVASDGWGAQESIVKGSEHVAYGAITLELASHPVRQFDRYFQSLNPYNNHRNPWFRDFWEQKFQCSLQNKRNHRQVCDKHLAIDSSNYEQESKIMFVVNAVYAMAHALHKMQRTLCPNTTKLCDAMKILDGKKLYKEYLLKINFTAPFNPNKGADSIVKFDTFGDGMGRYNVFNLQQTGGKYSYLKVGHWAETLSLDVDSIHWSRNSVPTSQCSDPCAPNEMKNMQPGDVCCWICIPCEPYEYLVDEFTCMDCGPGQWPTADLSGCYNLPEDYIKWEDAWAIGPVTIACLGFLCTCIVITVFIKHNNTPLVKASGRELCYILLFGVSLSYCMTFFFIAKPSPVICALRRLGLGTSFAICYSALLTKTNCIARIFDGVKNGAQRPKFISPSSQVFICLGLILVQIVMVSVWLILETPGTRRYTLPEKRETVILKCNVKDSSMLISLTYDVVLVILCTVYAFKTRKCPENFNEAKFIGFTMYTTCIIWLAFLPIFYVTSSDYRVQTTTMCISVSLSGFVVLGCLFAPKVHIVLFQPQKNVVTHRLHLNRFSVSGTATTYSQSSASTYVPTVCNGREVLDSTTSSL

- IC50 [2]: 0.24 µM (active)
- IC50 [3]: 0.003 µM (active)
SMILES: COc1ccccc1C(=O)Nc1cccc(NC(=O)c2cccc3ccccc23)c1

- EC50 [4]: 10 µM (inconclusive)
SMILES: CC(C(=O)Nc1ccc(F)nc1)N(c1ccccc1Cl)S(C)(=O)=O (stereo not drawn)

- EC50 [5]: > 67.6 µM (inactive)
SMILES: Cc1scc(C(=O)N/N=C/c2ccsc2)c1C

Further lines, the compound ahead of its results:

SMILES: COc1ccc(-c2ccc3cc(C(=O)N4CCCC(CO)C4)ccc3c2)c(OC)c1 (stereo not drawn)
- IC50 [1]: 9.87 µM (active)

SMILES: N=C1Sc2ccccc2C2=NCCCN12
- AC50 (Cytochrome P450 2C19): 6.31 µM (inconclusive)
- AC50 [6]: > 70 µM (inactive)
- AC50 (Cytochrome P450 3A4): 25.1 µM (inconclusive)
